This is an account of results in patent US20240335397A1, “USE OF POLYAMINES IN THE TREATMENT OF BRAIN TUMOURS” (priority 2021, published 2024).

The test system of data set [1] is U87 cells. The experiment in a line: 2D-scanning cell toxicity assay: polyamine injected into well of U87 cells under 3 wt % HA gel. The format is cell-based. The following applies: for Level of protection by HA of distant cells (rank): FIG. 4. The protocol:
FIG. 4. […] Adherent cells were grown in 24-well plates in 3% HA gel until achieved 40-50% confluency. Non-toxic fluorescent dye—CellToxGreen (Promega)—was premixed into the gel. 30 μL of polyamine ( 1/20 of total gel volume) was injected at 6 o'clock position of the well. CellToxGreen penetrated only into the dead cells with compromised membranes, bound to their DNA and emitted green fluorescence, i.e. increase in fluorescence intensity quantified cell death. Cells were monitored for 7 days using well scanning functions of a fluorescent reader FLUOstar (BMG Labtech, Germany). (A) Drawing of a well to show the point of injection of polyamine and the fate of cells near the injection point; and a representative image of a well assembled from 44 scanned patches. The higher the fluorescence intensity of a patch, the higher was the number of dead cells. (B) Ratio of dead cell fluorescence in two opposite areas of the well. Ratio=[fluorescence intensity in 22 patches adjacent to the injection point]/[fluorescence intensity in 22 patches opposing the injection point]. […] Multiplication 5×, field view: 2500 μm×1800 μm.
When brain cancers develop, it is within the polyanion (hyaluronic acid and GAG)-enriched environment of normal brain matrix, which in the tumour vicinity is degraded, diluted by oedema while the tumour itself synthesizes new specialized matrix with very different composition to normal brain (see Example 2). […] First, a cancer cell line of the neuroepithelial origin (U87) was plated, given a day for the cells to adhere to the well bottom and then covered by HA gel as a model of the polyanion-rich, normal brain ECM. Then, a polyamine was injected at the 6 o'clock position of each well (see FIG. 4). In the vicinity of the injection point, cells were expected to die, because the initial polyamine concentration was maximal in this region and the HA gel in this region was diluted by the carrier solvent (PBS). However, cells distant from the injection point were still surrounded by undiluted HA and the HA gel was expected to sequester the polyamine as it diffused through the HA gel, providing the polyamine binds strongly to HA and there is sufficient HA (i.e. the HA is not diluted) to bind sufficient polyamine to reduce the effective polyamine concentration to below the EC50 value. Thus, cells more distant from the injection point were expected to be protected from the polyamine, for as long as the polyamine remained strongly bound to the HA gel. Cell death was imaged over the well by scanning the well bottom for the fluorescence of a mortality dye, which binds DNA of cells with impaired membrane integrity.
In detail, U87 glioblastoma cells were grown in 24-well plates at with full MEM medium containing 10% foetal bovine serum until a layer of confluent cells covered the bottom of each well (FIG. 4). This liquid media was then removed leaving a layer of cells adhered to the bottom of each well. […] This hyaluronic acid plus protein gel represents a model of human brain extracellular matrix. CEIIToxGreen is a non-toxic molecule that can only enter dead cells, where it binds to DNA and emits green fluorescence. CEIIToxGreen thus allowed us to follow cell death over time in this assay by monitoring green fluorescence.
30 μL of different concentrations of polyamine was injected at the 6 o'clock position of each well and mapped the dead cell content in each well as a function of time. Specifically, each well was mapped as 44 congruent, contiguous tiles (FIG. 4A) and cell death in a tile was assayed as the net green fluorescence intensity from the tile.

The test system of a further data set is NCr nu/nu mouse brain. The protocol: FIG. 5. Weight gain and survival of NCr nu/nu mice after a single polyamine injection into the brain. 6 animals per group were randomised on day 0, and on day 1 injected with 10 μL of 4 and 10 mM of the following three polyamines: putrescine, spermidine and cadaverine. Animal weight, survival and behaviour was monitored for 14 days.
To test polyamine safety in vivo and assess their effect on brain function, a single injection of 10 μL into NCr nu/nu mouse brain was selected as a model. A 10 μL volume in a mouse brain correlates well with a 3 cm diameter tumour in human brain, which is a typical size, for example, for initial glioblastoma diagnosis. The injected volume is thus similar to what might be needed to be injected into a human brain tumour. Three polyamines were selected for testing: putrescine, spermidine and cadaverine. Polyamines were tested in two concentrations: the lowest concentration, 4 mM, was expected to be safe based on in vitro assays and the highest concentration, 10 mM, to show some toxicity for cadaverine at least.

In another data set the test system is U87 cell line spheroid. The following applies: for Invasion from spheroid: 2 wt % HA gel pre-mixed with polyamine; for Binding to HA (rank among polyamines): inferred from spheroid invasion in 2 wt % HA gel. The procedure:
FIG. 3. Neutralisation of polyamine toxicity by matrix polyanions assayed in vitro. U87 cells were suspended at 5K cells per spheroid and then grown in medium in non-adherent plates for 7-10 days until seeded into 2% HA gel pre-mixed with a polyamine for 24 hours. (A) Representative microscopic images (multiplication 5×, field view: 1800 μm×2500 μm) were taken on day 2 after spheroid was seeded into the gel. (B) Area of invasion was determined by measurement of invasion distance from the centre of four independent spheroids in four directions on days 1, 2 and 3.
Strength of polyamine binding to polyanions (hyaluronic acid, GAGs) in (normal) brain ECM is a decisive factor which targets polyamine toxicity towards cancer cells rather than brain cells. When binding is strong, a polyamine will be neutralised before reaching cellular membrane which is surrounded by extracellular polyanions. When binding is weak, sufficient concentration of polyamine may kill the cell even though the cell is surrounded by polyanions. To test the binding strength of different polyamines, we developed a 3D neutralisation assay: the invasion from a neuroepithelial cancer spheroid (U87 cell line) was monitored in vitro in 2 wt % HA gel pre-mixed with different polyamines. Invasion from spheroid was indicative of cell survival and thus predictive of a strong binding of the polyamine to brain polyanions in vivo. A weak in vitro binding of a polyamine to HA manifested itself by the absence of invasion, i.e. cell poisoning, and thus was predictive of weak binding of the polyamine to brain polyanions in vivo.
In detail, polyamines were mixed with 2 wt % hyaluronic acid mixed with full MEM medium containing 10% foetal bovine serum to support cell growth to achieve the desired polyamine concentration and the resulting hyaluronic acid/polyamine gel plated in 24-well plates. One 3D tumour spheroid of U87 GBM cells was placed in each well. The invasion into the surrounding hyaluronic acid-rich matrix was imaged over several days and the invasion area measured by determining the maximum invasion distance in four orthogonal directions from the centre of the tumour spheroid and compared to controls with no polyamine in the hyaluronic acid matrix.

For data set [2], the system named is U87 cells. The experiment in a line: Acute toxicity of polyamines to U87 cells in liquid medium (CellToxGreen fluorescence, bright field images). The format is cell-based. The following applies: for EC50: Homo sapiens, U-87 MG, 1 h, U87 cells, liquid medium, 60 minutes incubation, CellToxGreen normalised to lysis buffer control, read-out: EC50 (cell death). The protocol:
FIG. 1. Comparative acute toxicity of selected linear polyamines towards cancer cell line of neuroepithelial origin. U87 cells were plated in 24-well plates and grown for about 3 days in liquid medium up to 50% confluency. Cell death was assayed via CellToxGreen (Promega) fluorescence after 60 minutes incubation with a polyamine and normalised to control in a lysis buffer.
We tested polyamine toxicity to U87 cells, an invasive cancer cell line of neuroepithelial origin, when they were plated and incubated in full MEM medium, containing 10% foetal bovine serum.

The subject of another data set is recurrent GBM. Conditions: in combination with Lomustine, patients with recurrent GBM; cited from earlier work.

Like-named read-outs stand apart in the source and are kept apart here. Where only a bound is given, the exact number is not on record here.

Consider `NCCCCN` [putrescine], for which the “Level of protection by HA of distant cells (rank)” value in the data set with U87 cells [1] (3 wt % HA gel) is given as “highest”. For the same compound, the “Protection of cells in HA gel distant from injection” value (“Protection of cells” for short) in the data set on U87 cells [1] (both 4 mM and 10 mM) is recorded as “protected”. Besides, the “Acute toxicity in vivo” value in the data set with NCr nu/nu mouse brain (either concentration (4 mM, 10 mM), 10 μL into brain) is “Neither putrescine nor spermidine demonstrated acute toxicity”. The “Cytotoxicity in hyaluronic acid-rich matrix compared with media” value in the data set with U87 cell line spheroid is “almost completely abrogated”.

`NCCCCNCCCN` [spermidine]: in the data set on U87 cells [2], the EC50 (as a rule, the concentration giving half of the maximal effect) was 13 to 14 mM. In addition, in the data set on U87 cells [1] (4-12 mM, 3 wt % HA gel), the “Time cells on opposite side of well remained viable” value was “at least 7 days”, the “Time in which cells close to injection site die” value lay in the range of 48 to 72 h and the “Toxicity for U87 cells close to injection site” value was “highly toxic”. The “Protection of cells” value with U87 cells [1] (both 4 mM and 10 mM) is listed as “protected”. The “Cytotoxicity in hyaluronic acid-rich matrix compared with media” value in the data set on U87 cell line spheroid (2 wt % HA gel) is “almost completely abrogated”. Also, in the data set with U87 cell line spheroid, the Invasion from spheroid result is given as “invasion from spheroid was not affected” and the “Binding to HA (rank among polyamines)” value was “strongest binder”. Also, the “Toxicity in 2 wt % hyaluronic acid” value in the data set with U87 cell line spheroid (4-12 mM) was “non-toxic”.

“Bevacizumab: monoclonal antibody against vascular endothelial growth factor (VEGF)”: in the data set with recurrent GBM, the “Increase in median progression-free survival” value is reported as 0.23 months and the “Increase in overall survival” value is 1.4 months.

Take `NCCCCCCNCCCCCCN` [BHMTA, bis(hexamethylene)triamine]: the “Concentrations showing cytotoxic effects in hyaluronic acid-rich matrix” value (from here on “Concentrations showing cytotoxic effects”) in the data set on U87 cell line spheroid was more than 4000 µM.

For the compound `NCCCNCCCCNCCCN` [spermine], in the data set on U87 cells [2] (U87 cell suspensions, 10 mM and 20 mM, within 60 minutes), the “Mode of cell death in bright field images” value is “severe membrane disruption resulting in cell fragmentation”. Also, the “Reduction of toxicity in hyaluronic acid-rich environment compared to same cell type in medium” value with U87 cells [1] (10 mM, 3 wt % HA) stood at 3 fold less toxic. In the data set with U87 cells [1] (4-6 mM, 3 wt % HA gel), the “Effect on cells a few millimetres away from injection point” value is “benign” and the “Toxicity to cells close to injection point” value is listed as “toxic”. For the same compound, in the data set on U87 cell line spheroid, the Invasion from spheroid result is recorded as “invasion was strongly suppressed” and the “Binding to HA (rank among polyamines)” value is “weakest binder”. In the data set on U87 cell line spheroid (human), the “Concentrations showing cytotoxic effects” value was more than 4000 µM.

As for `NCCCCCN` [cadaverine], the EC50 with U87 cells [2] came to 6 mM. In the data set with U87 cells [1] (10 mM), the “Protection of cells” value is “not protected”. In addition, in the data set on U87 cells [1] (3 wt % HA gel), the “Level of protection by HA of distant cells (rank)” value was “lowest”. Also, in the data set with NCr nu/nu mouse brain (10 mM, 10 μL into brain), the “Animals died after 30 min of injection” value is 3 out of 6, the “Further animals died within 24 hours” value came out at 2 animals and the Survival entry was “Only one animal survived”. The “Weight loss of surviving animal” value in the data set on NCr nu/nu mouse brain (10 mM, day 3, then fully recovered) is on record as 18%. In addition, the “Concentrations showing cytotoxic effects” value in the data set on U87 cell line spheroid (human) was more than 4000 µM.
